# Measurements: patent publication US20220291236A1, “DETECTION OF DYSTROGLYCAN” (ML Bio Solutions Inc., priority 2021, published 2022)
# System: alpha-dystroglycan (αDG)
# Assay: Multiplexed Western Blot of total αDG and glycosylated αDG in muscle lysates of P448L mutant FKRP mice untreated or treated with 5% Ribitol
# Type: in vivo, mouse
# Conditions: 5% Ribitol treated P488L mice compared to untreated P488L mice, heart muscle and TA lysates, region ~50-250 kDa
# Description: Tissue samples were processed using a TissueLyzer IITM (Qiagen®). Approximately 250 milligrams (mg) of tissue was placed in a 2 mL microtube with a steel bead and 1 mL of Radioimmunoprecipitation assay buffer (RIPA) buffer supplemented with protease and phosphatase inhibitors. The microtubes were subjected to three cycles of disruption (2 minutes at 25 Hertz (Hz)) in the TissueLyzer IITM. Lysates were clarified by centrifugation and the supernatant was transferred to fresh tubes and lysate concentration was determined using a BCA assay (Pierce®). Polyacrylamide gel electrophoresis was carried out on 4-20% […] gels. […] The membrane was visualized on an Odyssey CLxTM imager (LiCorTM) and intensities of the 700 and 800 nm channels were recorded. […] Signal intensities were normalized to total protein and the ratio of 700 nm normalized signal/800 nm normalized signal was determined. Linear fits were assessed where applicable using the linear regression function of PrismTM. Statistical significance was determined using an unpaired t-test using PrismTM. 1) StainFree gel image is quantitated using ImageLabTM software to analyze the image from the ChemiDocTM Imaging System. […] Signal intensities were normalized to total protein and the ratio of 700 nm normalized signal/800 nm normalized signal was determined. Linear fits were assessed were applicable using a linear regression function. […]
structure (smiles),measurement,setting,value
"OC[C@@H](O)[C@@H](O)[C@@H](O)CO [Ribitol, (2R,3s,4S)-Pentane-1,2,3,4,5-pentol]",αDG expression (total αDG signal),normalized to C57 untreated control (FIG. 6B),increased
same,ratio of glycosylated αDG to total αDG,normalized to C57 untreated control (FIG. 6C),increased
